The supplement of paper PMC11451515

Test system: SEM cells
Experiment: cell viability relative to DMSO control; higher = less cytotoxic
Conditions: 48 h
Procedure, shortened: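 Viability is expressed as a percentage of DMSO wells within each plate, and cell-free wells serve as background. Seeding densities in the 1536-well plates (5 μl) were 500 cells/well for NOMO1 or SEM leukemia cells and 1000 cells/well for P12-Ichikawa. Each line was adapted for at least four passages in each medium. Library compounds in DMSO were pin-dosed at 47 μM to 0.79 nM (11 points, threefold), and CellTiter-Glo One luminescence was read after 48 h at 37°C.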

[1] = HPLM + 10% dialyzed FBS, 0.000781 µM
[2] = HPLM + 10% dialyzed FBS, 0.00234 µM
[3] = HPLM + 10% dialyzed FBS, 0.00702 µM
[4] = HPLM + 10% dialyzed FBS, 0.0211 µM
[5] = HPLM + 10% dialyzed FBS, 0.0632 µM
[6] = HPLM + 10% dialyzed FBS, 0.19 µM
[7] = HPLM + 10% dialyzed FBS, 0.569 µM
[8] = HPLM + 10% dialyzed FBS, 1.71 µM
[9] = HPLM + 10% dialyzed FBS, 5.12 µM
[10] = HPLM + 10% dialyzed FBS, 15.4 µM
[11] = HPLM + 10% dialyzed FBS, 46.1 µM
[12] = RPMI 5 mM glucose + 10% FBS, 0.000781 µM
[13] = RPMI 5 mM glucose + 10% FBS, 0.00234 µM
[14] = RPMI 5 mM glucose + 10% FBS, 0.00702 µM
[15] = RPMI 5 mM glucose + 10% FBS, 0.0211 µM
[16] = RPMI 5 mM glucose + 10% FBS, 0.0632 µM
[17] = RPMI 5 mM glucose + 10% FBS, 0.19 µM
[18] = RPMI 5 mM glucose + 10% FBS, 0.569 µM
[19] = RPMI 5 mM glucose + 10% FBS, 1.71 µM
[20] = RPMI 5 mM glucose + 10% FBS, 5.12 µM
[21] = RPMI 5 mM glucose + 10% FBS, 15.4 µM
[22] = RPMI 5 mM glucose + 10% FBS, 46.1 µM
[23] = RPMI 5 mM glucose + 10% dialyzed FBS, 0.000781 µM
[24] = RPMI 5 mM glucose + 10% dialyzed FBS, 0.00234 µM
[25] = RPMI 5 mM glucose + 10% dialyzed FBS, 0.00702 µM
[26] = RPMI 5 mM glucose + 10% dialyzed FBS, 0.0211 µM
[27] = RPMI 5 mM glucose + 10% dialyzed FBS, 0.0632 µM
[28] = RPMI 5 mM glucose + 10% dialyzed FBS, 0.19 µM
[29] = RPMI 5 mM glucose + 10% dialyzed FBS, 0.569 µM
[30] = RPMI 5 mM glucose + 10% dialyzed FBS, 1.71 µM
[31] = RPMI 5 mM glucose + 10% dialyzed FBS, 5.12 µM
[32] = RPMI 5 mM glucose + 10% dialyzed FBS, 15.4 µM
[33] = RPMI 5 mM glucose + 10% dialyzed FBS, 46.1 µM

Row | Structure (SMILES) | cell viability [1] [%] | cell viability [2] [%] | cell viability [3] [%] | cell viability [4] [%] | cell viability [5] [%] | cell viability [6] [%] | cell viability [7] [%] | cell viability [8] [%] | cell viability [9] [%] | cell viability [10] [%] | cell viability [11] [%] | cell viability [12] [%] | cell viability [13] [%] | cell viability [14] [%] | cell viability [15] [%] | cell viability [16] [%] | cell viability [17] [%] | cell viability [18] [%] | cell viability [19] [%] | cell viability [20] [%] | cell viability [21] [%] | cell viability [22] [%] | cell viability [23] [%] | cell viability [24] [%] | cell viability [25] [%] | cell viability [26] [%] | cell viability [27] [%] | cell viability [28] [%] | cell viability [29] [%] | cell viability [30] [%] | cell viability [31] [%] | cell viability [32] [%] | cell viability [33] [%]
1 | COc1cc2c(cc1OC)CN(CCc1ccc(NC(=O)c3cccc4c(=O)c5cccc(OC)c5[nH]c34)cc1)CC2 | 84.4 | 98.8 | 103 | 105 | 106 | 109 | 105 | 105 | 36.4 | 8.23 | 5.66 | 91.1 | 85.9 | 82.9 | 90.8 | 77.2 | 83.5 | 85.2 | 9.76 | 8.45 | 5.57 | 4.07 | 108 | 112 | 104 | 112 | 122 | 116 | 94.3 | 24.4 | 11.2 | 5.96 | 3.77
2 | NC[C@H](O)c1ccc(O)c(O)c1 | 93.3 | 102 | 111 | 101 | 95.9 | 98.2 | 92 | 85.4 | 92.8 | 84.5 | 78.4 | 84 | 115 | 102 | 109 | 97.7 | 100 | 97 | 89.5 | 97.5 | 82.8 | 81.5 | 84.9 | 103 | 88.5 | 103 | 104 | 99.1 | 100 | 91.9 | 96.7 | 96.9 | 72.9
3 | CC(=O)N(O)CCCCCNC(=O)CCC(=O)N(O)CCCCCNC(=O)CCC(=O)N(O)CCCCCN.C[S+](=O)([O-])O | 74.3 | 86.8 | 77.7 | 26.2 | 25.3 | 18.8 | 22.5 | 18.2 | 23.9 | 23.2 | 23.2 | 96.8 | 54.4 | 30.4 | 18.5 | 20.6 | 20.9 | 20.6 | 14.4 | 18.5 | 15.9 | 16.3 | 81 | 82.9 | 94.4 | 30.2 | 25.4 | 19.3 | 18.7 | 20.2 | 19.3 | 23.6 | 23.7
4 | Cc1cccc(-c2[nH]c(C(C)(C)C)nc2-c2ccc3nccnc3c2)n1 | 121 | 121 | 120 | 131 | 123 | 125 | 124 | 121 | 117 | 97.7 | 11.1 | 95.9 | 85.8 | 89.7 | 95.9 | 91.2 | 81.1 | 89 | 67.9 | 82 | 64.9 | 6.89 |  |  |  |  |  |  |  |  |  |  | 
5 | O=C(NOCC1CC1)c1ccc(F)c(F)c1Nc1ccc(I)cc1Cl | 91 | 87.8 | 109 | 113 | 99.7 | 99.5 | 113 | 116 | 95.8 | 75.5 | 77.1 | 95.8 | 93.7 | 112 | 108 | 94.7 | 93.8 | 106 | 94.2 | 85.5 | 67.3 | 53.1 | 101 | 89.9 | 115 | 104 | 102 | 78.2 | 103 | 89.6 | 84.8 | 59.7 | 59.7
6 | CC(C)C[C@H](CC(=O)O)C(=O)N[C@@H](Cc1c[nH]c2ccccc12)C(=O)N[C@@H](C)c1ccccc1 | 96.1 | 100 | 119 | 113 | 106 | 105 | 7.87 | 92.1 | 112 | 73.1 | 54 | 96.1 | 112 | 125 | 116 | 110 | 122 | 8.87 | 86.2 | 96.9 | 65.9 | 54.3 | 77.7 | 90.4 | 97.3 | 113 | 89.6 | 87.2 | 8.39 | 79.4 | 90.2 | 53.7 | 46.4
7 | c1cc2c(cc1[C@H]1OC[C@H]3[C@@H]1CO[C@@H]3c1ccc3c(c1)OCO3)OCO2 | 113 | 105 | 119 | 123 | 126 | 119 | 126 | 110 | 119 | 108 | 92.4 | 124 | 102 | 117 | 129 | 131 | 135 | 117 | 113 | 107 | 100 | 103 | 108 | 115 | 144 | 130 | 113 | 140 | 130 | 132 | 103 | 118 | 86.4
8 | OC(=O)CNC(=O)\C1=C(/O)C2=CC=CC=C2N(CC3=CC=CC=C3)C1=O | 106 | 104 | 105 | 125 | 54 | 99.2 | 116 | 104 | 111 | 102 | 106 | 98.1 | 103 | 117 | 112 | 17.9 | 104 | 107 | 94.7 | 106 | 97.4 | 88.9 | 121 | 116 | 111 | 106 | 89.3 | 117 | 119 | 114 | 105 | 86.3 | 109
9 | OC1CCC(CC1)N2\C=N/C3=C(C2=N)C(=C([N]3CC4=CC=CC=C4)C5=CC=CC=C5)C6=CC=CC=C6 (stereo not drawn) | 117 | 123 | 134 | 116 | 113 | 98.9 | 46.8 | 47.2 | 38.6 | 39 | 41 | 110 | 117 | 131 | 108 | 102 | 97.6 | 47.4 | 39.4 | 37 | 37.8 | 24 |  |  |  |  |  |  |  |  |  |  | 
10 | CC(C)(C)NCC(O)c1ccc(O)c(CO)c1 (stereo not drawn) | 101 | 99.4 | 103 | 106 | 113 | 102 | 112 | 106 | 104 | 109 | 93.6 | 118 | 113 | 115 | 112 | 108 | 125 | 109 | 95.5 | 107 | 108 | 111 | 96.9 | 112 | 109 | 124 | 115 | 114 | 111 | 116 | 120 | 122 | 114
11 | Cc1ccc(C(=O)Nc2ccc([S+](=O)([O-])O)c3cc([S+](=O)([O-])O)cc([S+](=O)([O-])O)c23)cc1NC(=O)c1cccc(NC(=O)Nc2cccc(C(=O)Nc3cc(C(=O)Nc4ccc([S+](=O)([O-])O)c5cc([S+](=O)([O-])O)cc([S+](=O)([O-])O)c45)ccc3C)c2)c1 | 96.8 | 105 | 96.2 | 100 | 115 | 91.4 | 101 | 93.8 | 68.5 | 44.4 | 33.1 | 109 | 128 | 120 | 121 | 113 | 112 | 100 | 115 | 52.7 | 21.2 | 22.7 | 85 | 97.2 | 100 | 88.6 | 98.4 | 86 | 94.9 | 86.5 | 55.1 | 23.9 | 23.7
12 | N#Cc1c(N(CC(=O)[O-])CC(=O)[O-])sc(C(=O)[O-])c1CC(=O)[O-].O.O.O.O.O.O.O.[Sr+2].[Sr+2] | 111 | 113 | 122 | 111 | 117 | 130 | 127 | 132 | 144 | 103 | 87.9 | 117 | 124 | 131 | 138 | 149 | 146 | 153 | 132 | 143 | 124 | 102 | 111 | 107 | 123 | 121 | 129 | 131 | 134 | 128 | 112 | 89.3 | 67.9
13 | Nc1ncnc2nc(-c3ccc(N4CCOCC4)nc3)cc(-c3cccc(Br)c3)c12 | 109 | 107 | 115 | 118 | 114 | 122 | 117 | 115 | 109 | 110 | 96.5 | 93.2 | 124 | 77.9 | 111 | 114 | 110 | 104 | 105 | 114 | 106 | 83 | 125 | 124 | 102 | 133 | 125 | 127 | 132 | 126 | 133 | 123 | 93
14 | CCOC(=O)c1c(CSc2ccccc2)n(C)c2cc(Br)c(O)c(CN(C)C)c12 | 89.7 | 94.8 | 96.4 | 109 | 96.2 | 102 | 97.3 | 103 | 82.5 | 108 | 88.6 | 107 | 114 | 109 | 103 | 104 | 128 | 125 | 129 | 103 | 101 | 63.7 | 94.9 | 114 | 101 | 104 | 111 | 97.5 | 94.7 | 109 | 113 | 109 | 70.5
15 | COc1cc2cc(c1Cl)N(C)C(=O)C[C@H](OC(=O)C(C)C)[C@]1(C)O[C@@H]1[C@H](C)[C@@H]1C[C@@](O)(NC(=O)O1)[C@H](OC)/C=C/C=C(\C)C2 | 27.9 | 26 | 28.5 | 22.6 | 15.2 | 9.09 | 7.19 | 6.56 | 5.59 | 4.17 | 2.54 | 21.3 | 24.2 | 21.4 | 12.7 | 9.24 | 8.39 | 7.82 | 6.35 | 4.76 | 4.03 | 2.1 | 24.3 | 24 | 20.2 | 14.5 | 8.42 | 5.55 | 5.76 | 5.03 | 4.42 | 3.49 | 1.84
